Experimental data reported in ChEMBL document CHEMBL4312031, “Discovery of candesartan cilexetic as a novel neddylation inhibitor for suppressing tumor growth” (Eur J Med Chem, 2020).
Activity calls are given as the source filed them. The calls are words filed in the database; no cut-off is given here.

Columns and labels:
[1] = test system: A549; assay: Cell cycle arrest in human A549 cells assessed as accumulation at G1 phase at 25 uM measured after 24 hrs by propidium iodide/RNase A staining based flow cytometry analysis (reference value: 63.84 %); type: functional
[2] = biological target: T1, NEDD8-conjugating enzyme Ubc12 (Homo sapiens) (UniProt P61081); assay: Inhibition of UBC12 in human A549 cells assessed as decrease in Cullin1-Nedd8 adduct level at 50 uM measured after 6 to 12 hrs by Western blot analysis; type: cell-based
T1 sequence (whole entry): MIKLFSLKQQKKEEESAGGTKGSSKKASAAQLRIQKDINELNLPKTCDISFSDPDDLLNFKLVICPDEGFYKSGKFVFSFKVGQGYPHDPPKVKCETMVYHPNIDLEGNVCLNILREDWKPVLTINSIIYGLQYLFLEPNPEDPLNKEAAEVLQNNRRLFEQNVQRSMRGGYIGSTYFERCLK

[3] = biological target: T2, Ubiquitin-conjugating enzyme E2 C (Homo sapiens) (UniProt O00762); assay: Inhibition of UbcH10 in human A549 cells assessed as reduction in protein ubiquitination by measuring Ubc10-ub adduct formation at 50 to 100 uM by Western blot analysis; type: cell-based
T2 sequence (whole entry): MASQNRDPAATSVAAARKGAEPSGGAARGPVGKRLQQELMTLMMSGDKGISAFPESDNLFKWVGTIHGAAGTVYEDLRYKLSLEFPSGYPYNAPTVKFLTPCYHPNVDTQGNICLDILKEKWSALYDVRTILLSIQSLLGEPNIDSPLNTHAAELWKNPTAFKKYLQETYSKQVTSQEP

[4] = biological target: T1, NEDD8-conjugating enzyme Ubc12 (Homo sapiens); assay: Inhibition of UBC12 in human A549 cells assessed as decrease in Cullin2-Nedd8 adduct level at 50 uM measured after 6 to 12 hrs by Western blot analysis; type: cell-based
[5] = test system: EKVX; assay: Antiproliferative activity against human EKVX cells measured after 48 hrs by CCK8 assay; type: functional, cell-based
[6] = biological target: T3, NEDD8-conjugating enzyme UBE2F (Homo sapiens) (UniProt Q969M7); assay: Inhibition of UBE2F in human A549 cells assessed as decrease in Cullin5-Nedd8 adduct level measured after 6 to 12 hrs by Western blot analysis; type: cell-based
T3 sequence (whole entry): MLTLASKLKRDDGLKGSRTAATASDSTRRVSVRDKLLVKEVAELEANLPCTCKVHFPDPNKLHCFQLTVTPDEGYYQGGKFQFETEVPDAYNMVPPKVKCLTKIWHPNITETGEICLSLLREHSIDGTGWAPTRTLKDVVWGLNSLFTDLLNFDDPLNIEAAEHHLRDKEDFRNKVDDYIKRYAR

[7] = test system: A549; assay: Inhibition of colony formation in human A549 cells measured after 10 days; type: functional, cell-based
[8] = biological target: T4, NEDD8/NEDD8-conjugating enzyme Ubc12 (Homo sapiens) (UniProt P61081+Q15843); assay: Competitive inhibition of Nedd8-Ubc12 (unknown origin) adduct formation assessed as decrease in Ubc12-Nedd8 adduct formation at 50 uM preincubated for 10 mins followed by ATP addition and measured after 30 mins by immunoblot analysis; type: protein-complex assay
[9] = biological target: T5, NEDD8/Cullin-1 (Homo sapiens) (UniProt Q13616+Q15843); assay: Competitive inhibition of Nedd8-cullin1 (unknown origin) adduct formation assessed as decrease in cullin1-Nedd8 adduct formation at 50 uM preincubated for 10 mins followed by ATP addition and measured after 30 mins by immunoblot analysis; type: protein assay
T5 sequence (Q13616 whole entry, looked up): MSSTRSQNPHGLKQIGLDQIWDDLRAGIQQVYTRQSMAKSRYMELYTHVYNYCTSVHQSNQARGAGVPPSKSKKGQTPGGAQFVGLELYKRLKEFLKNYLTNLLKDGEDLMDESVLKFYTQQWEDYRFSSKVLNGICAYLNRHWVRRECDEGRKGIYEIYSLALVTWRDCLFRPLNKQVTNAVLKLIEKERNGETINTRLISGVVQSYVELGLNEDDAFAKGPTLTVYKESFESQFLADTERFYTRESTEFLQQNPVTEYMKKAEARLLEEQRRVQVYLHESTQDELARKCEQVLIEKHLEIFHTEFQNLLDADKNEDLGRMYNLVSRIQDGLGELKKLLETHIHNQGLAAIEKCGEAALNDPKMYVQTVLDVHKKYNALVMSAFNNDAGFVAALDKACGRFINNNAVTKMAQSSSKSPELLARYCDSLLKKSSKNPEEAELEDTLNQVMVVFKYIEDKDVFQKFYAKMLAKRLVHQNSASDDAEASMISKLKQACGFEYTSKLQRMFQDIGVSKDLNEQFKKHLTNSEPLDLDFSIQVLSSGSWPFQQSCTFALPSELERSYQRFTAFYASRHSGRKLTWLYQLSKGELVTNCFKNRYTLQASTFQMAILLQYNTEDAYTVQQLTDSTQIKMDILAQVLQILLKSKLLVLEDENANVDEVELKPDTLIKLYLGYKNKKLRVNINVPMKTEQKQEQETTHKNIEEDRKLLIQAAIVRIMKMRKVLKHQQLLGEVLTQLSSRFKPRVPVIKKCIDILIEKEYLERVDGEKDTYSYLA
T5 sequence (Q15843 whole entry, looked up): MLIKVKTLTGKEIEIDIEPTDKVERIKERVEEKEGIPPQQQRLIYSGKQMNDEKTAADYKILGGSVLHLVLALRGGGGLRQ

[10] = test system: A549; assay: Cell cycle arrest in human A549 cells assessed as accumulation at sub-G1 phase at 50 uM measured after 24 hrs by propidium iodide/RNase A staining based flow cytometry analysis (reference value: 0.89 %); type: functional
[11] = test system: A549; assay: Induction of apoptosis in human A549 cells assessed as increase in PARP cleavage at 50 to 100 uM by Western blot analysis; type: functional, cell-based
[12] = test system: A549; assay: Antitumor activity against human A549 cells xenografted in nude mouse assessed as decrease in tumor size at 60 mg/kg, ip qd measured after 22 days; type: functional, organism-based
[13] = biological target: T5, NEDD8/Cullin-1 (Homo sapiens); assay: Inhibition of Nedd8-cullin1 (unknown origin) adduct formation assessed as decrease in cullin1 neddylation at 50 uM preincubated for 10 mins followed by ATP addition and measured after 30 mins by immunoblot analysis; type: protein assay
[14] = biological target: T5, NEDD8/Cullin-1 (Homo sapiens); assay: Inhibition of Nedd8-cullin1 adduct formation in human A549 cells assessed as decrease in cullin1 neddylation at 100 uM incubated for 6 to 12 hrs by Western blot analysis; type: cell-based
[15] = test system: A549; assay: Antitumor activity against human A549 cells xenografted in nude mouse assessed as decrease in tumor weight at 60 mg/kg, ip qd measured after 22 days; type: functional, organism-based
[16] = test system: A549; assay: Cell cycle arrest in human A549 cells assessed as accumulation at sub-G1 phase at 75 uM measured after 24 hrs by propidium iodide/RNase A staining based flow cytometry analysis (reference value: 0.89 %); type: functional
[17] = test system: A549; assay: Cell cycle arrest in human A549 cells assessed as accumulation at G1 phase at 50 uM measured after 24 hrs by propidium iodide/RNase A staining based flow cytometry analysis (reference value: 63.84 %); type: functional
[18] = biological target: T4, NEDD8/NEDD8-conjugating enzyme Ubc12 (Homo sapiens); assay: Inhibition of Nedd8-Ubc12 (unknown origin) assessed as decrease in Ubc12-Nedd8 adduct formation at 50 uM preincubated for 10 mins followed by ATP addition and measured after 30 mins by immunoblot analysis; type: protein-complex assay
[19] = test system: A549; assay: Cell cycle arrest in human A549 cells assessed as accumulation at G2 phase at 25 uM measured after 24 hrs by propidium iodide/RNase A staining based flow cytometry analysis (reference value: 12.69 %); type: functional
[20] = biological target: SUMO-conjugating enzyme UBC9 (Homo sapiens) (UniProt P63279); assay: Inhibition of Ubc9 in human A549 cells assessed as reduction in protein sumoylation by measuring Ubc9-Sumo adduct formation at 50 to 100 uM by Western blot analysis; type: cell-based
SUMO-conjugating enzyme UBC9 (Homo sapiens), sequence (P63279 whole entry): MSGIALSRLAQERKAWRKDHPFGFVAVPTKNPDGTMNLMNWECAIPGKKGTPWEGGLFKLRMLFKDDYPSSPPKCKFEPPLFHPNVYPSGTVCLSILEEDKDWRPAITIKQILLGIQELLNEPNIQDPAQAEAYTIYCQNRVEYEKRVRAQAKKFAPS

[21] = test system: A549; assay: Antitumor activity against human A549 cells xenografted in nude mouse assessed as decrease in tumor weight at 30 mg/kg, ip qd measured after 22 days; type: functional, organism-based
[22] = test system: 16HBE14o-; assay: Cytotoxicity against human 16HBE cells after 48 hrs by CCK-8 assay; type: cell-based
[23] = biological target: T5, NEDD8/Cullin-1 (Homo sapiens); assay: Inhibition of Nedd8-cullin1 (unknown origin) assessed as decrease in cullin1-Nedd8 adduct formation at 25 to 50 uM preincubated for 10 mins followed by ATP addition and measured after 30 mins by immunoblot analysis; type: protein assay
[24] = test system: A549; assay: Induction of apoptosis in human A549 cells assessed as early apoptotic cells at 50 uM measured after 48 hrs by AnnexinV-FITC/propidium iodide staining based FACS analysis (reference value: 2.19 %); type: functional
[25] = biological target: T1, NEDD8-conjugating enzyme Ubc12 (Homo sapiens); assay: Inhibition of UBC12 in human A549 cells assessed as decrease in Cullin4a-Nedd8 adduct level at 50 uM measured after 6 to 12 hrs by Western blot analysis; type: cell-based
[26] = biological target: T3, NEDD8-conjugating enzyme UBE2F (Homo sapiens); assay: Inhibition of UBE2F in human A549 cells assessed as decrease in Cullin5-Nedd8 adduct level at 50 uM measured after 6 to 12 hrs by Western blot analysis; type: cell-based
[27] = test system: A549; assay: Antitumor activity against human A549 cells xenografted in nude mouse assessed as decrease in tumor size at 30 mg/kg, ip qd measured after 22 days; type: functional, organism-based
[28] = biological target: T1, NEDD8-conjugating enzyme Ubc12 (Homo sapiens); assay: Inhibition of UBC12 in human A549 cells assessed as decrease in Cullin1-Nedd8 adduct level measured after 6 to 12 hrs by Western blot analysis; type: cell-based

inhibition [2]: Active
inhibition [3]: inactive
inhibition [4]: Active
inhibition [6]: Dose-dependent effect
inhibition [8]: Active
inhibition [9]: Active
inhibition [13]: Active
inhibition [14]: Active
inhibition [18]: 100%
inhibition [20]: inactive
inhibition [23]: Active
inhibition [25]: Active
inhibition [26]: Active
inhibition [28]: Dose-dependent effect
SMILES: CCOc1nc2cccc(C(=O)OC(C)OC(=O)OC3CCCCC3)c2n1Cc1ccc(-c2ccccc2-c2nn[nH]n2)cc1 (stereo not drawn) [CANDESARTAN CILEXETIL]
Activity [1]: 63.02%
IC50 [5]: > 100 µM
inhibition [7]: Dose-dependent effect
Activity [10]: 20.35%
Activity [11]: Active
Activity [12]: Active
Activity [15]: Active
Activity [16]: 30.45%
Activity [17]: 60.18%
Activity [19]: 6.48%
Activity [21]: Active
IC50 [22]: > 100 µM
Activity [24]: 11.77%
Activity [27]: Active
